The test deals with T1, hVEGF-A (Homo sapiens, UniProt P15692).
T1 sequence (P15692 207-395): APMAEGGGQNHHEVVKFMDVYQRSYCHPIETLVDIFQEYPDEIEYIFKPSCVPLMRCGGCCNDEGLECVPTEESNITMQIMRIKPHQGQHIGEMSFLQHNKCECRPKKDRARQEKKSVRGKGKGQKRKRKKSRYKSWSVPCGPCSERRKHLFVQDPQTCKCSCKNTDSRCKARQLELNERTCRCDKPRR
As to the kind of experiment: KDR-CHO VEGF assay to determine cellular IC50 (VEGF mediated Tyr phosphorylation of KDR). It counts as cell-based. Here is the method: KDR-CHO cells (CHO cells stably transfected with gD tagged-KDR) were grown in cell growth medium (DMEM/Ham's F-12, 10% diafiltered FBS (GIBCO catalog no. 26400), 25 mM HEPES, 2 mM L-GLUTAMAX™). For VEGF stimulation assay, 5×10^4 cells/well were plated in 100 μl of cell plating medium (DMEM/Ham's F-12, 0.2% BSA, 0.25% diafiltered FBS, 25 mM HEPES, 2 mM L-GLUTAMAX™) in 96-well tissue culture plate and incubated at 37° C. overnight. The medium was replaced with 100 I1 of serum-free cell stimulation medium (DMEM/Ham's F-12, 0.5% BSA, 25 mM HEPES) and cells were incubated at 37° C. for 2 hr. One hour before stimulation, the medium was replaced with 50 I1 of serum-free cell stimulation medium. Concurrently, VEGF (50 ng/ml for hVEGF, 100 ng/ml for mVEGF and rVEGF) was pre-incubated with titrated amount of CKP or anti-VEGF in 50 μl of serum-free cell stimulation medium at 37° C. for 1 hour and added to the cells. The cells were stimulated for 15 min at 37 C and the medium is removed. The cells were lysed with 130 I1 of ice-cold cell lysis buffer (150 mM NaCl, 50 mM HEPES, 0.5% Triton-X 100, HALT protease and phosphatase inhibitor cocktail (ThermoFisher Scientific, Inc. catalog no. 78444), 5 mM EDTA). VEGF mediated Tyr phosphorylation of KDR was determined by ELISA-based assay. Briefly, MAXISORP™ 96 well plates (ThermoFisher Scientific, Inc. catalog no. 439454) were coated with 100 I1 of anti-gD antibody diluted in PBS (1 μg/ml) at 4° C. overnight and washed three times with washing buffer (PBS, 0.05% TWEEN®20, pH 7.4). The plates were blocked with 300 I1 of blocking buffer (PBS, 0.5% BSA) at room temperature for 1 hour followed by washing three times with washing buffer. The above KDR-CHO cell lysate (100 μl) was added to each well and incubated at room temperature for 2 hours. The plates were washed four times with washing buffer followed by incubation with 100 I1 of 0.5 μg/ml biotin-conjugated anti-phosphotyrosine (clone 4G10, Millipore catalog no. 16-103) in blocking buffer at room temperature for 2 hours. After washing four times, the plates were incubated with 100 I1 of HRP-conjugated streptavidin in blocking buffer at room temperature for 30 min. After washing four times, the plates were developed with 100 I1 of TMB substrate (BD Biosciences) at room temperature for 20-30 min and stopped by addition of 50 μl of H2SO4 solution. The optical density of each well was determined using a microplate reader set to 450 nm.

The structures appear in SMILES notation. Positions of bridges follow the written chain, without caps; N, C: chain ends. Residues, ends and D or L forms follow the SMILES beside them.

`CC[C@H](C)[C@H](NC(=O)[C@@H]1CSSC[C@H](NC(=O)CN)C(=O)N[C@@H](CC(N)=O)C(=O)N[C@@H]([C@@H](C)CC)C(=O)N[C@@H](CCSC)C(=O)N[C@@H](CC(C)C)C(=O)N2CCC[C@H]2C(=O)N[C@@H](Cc2ccccc2)C(=O)N[C@@H](Cc2c[nH]c3ccccc23)C(=O)NCC(=O)N[C@H]2CSSC[C@H](NC(=O)[C@H](CCC(=O)O)NC(=O)[C@H](Cc3ccccc3)NC(=O)[C@H](CC(=O)O)NC(=O)[C@H](CCCNC(=N)N)NC(=O)CNC2=O)C(=O)N[C@@H](CCSC)C(=O)N[C@@H](CO)C(=O)N[C@@H](CC(=O)O)C(=O)N1)C(=O)N[C@H]1CSSC[C@@H](C(=O)NCC(=O)O)NC(=O)[C@H](CO)NC(=O)[C@H](CCC(N)=O)NC(=O)[C@H](Cc2ccc(O)cc2)NC(=O)[C@H](Cc2ccc(O)cc2)NC(=O)[C@H](CCC(N)=O)NC1=O` [9.54.90.12] (H-GCNIMLPFWGCGRDFECMSDCICQYYQSCG-OH; disulfide 2-21, 11-17, 23-29; N-terminus and C-terminus assumed): the “FOLD IMPROVEMENT RELATIVE TO VARIANT 9.54.90” value (Table 36, from cellular IC50) was determined as 1.125.
In the case of `CC[C@H](C)[C@H](NC(=O)[C@@H]1CSSC[C@H](NC(=O)CN)C(=O)N[C@@H](CC(N)=O)C(=O)N[C@@H]([C@@H](C)CC)C(=O)N[C@@H](CCSC)C(=O)N[C@@H](CC(C)C)C(=O)N2CCC[C@H]2C(=O)N[C@@H](Cc2ccc(O)cc2)C(=O)N[C@@H](Cc2c[nH]c3ccccc23)C(=O)NCC(=O)N[C@H]2CSSC[C@H](NC(=O)[C@H](CCC(=O)O)NC(=O)[C@H](Cc3ccccc3)NC(=O)[C@H](CC(=O)O)NC(=O)[C@H](CCCNC(=N)N)NC(=O)CNC2=O)C(=O)N[C@@H](CCSC)C(=O)N[C@@H](CC(N)=O)C(=O)N[C@@H](CCC(N)=O)C(=O)N1)C(=O)N[C@H]1CSSC[C@@H](C(=O)NCC(=O)O)NC(=O)[C@H](CO)NC(=O)[C@H](CCC(N)=O)NC(=O)[C@H](Cc2ccc(O)cc2)NC(=O)[C@H](Cc2ccc(O)cc2)NC(=O)[C@H](CCC(N)=O)NC1=O` [9.54.90.13.F8Y] (H-GCNIMLPYWGCGRDFECMNQCICQYYQSCG-OH; disulfide 2-21, 11-17, 23-29; N-terminus and C-terminus assumed), the “FOLD IMPROVEMENT RELATIVE TO VARIANT 9.54.90” value (Table 38, from cellular IC50) turned out to be 0.67.
As to `CC[C@H](C)[C@H](NC(=O)[C@@H]1CSSC[C@H](NC(=O)CN)C(=O)N[C@@H](CC(N)=O)C(=O)N[C@@H]([C@@H](C)CC)C(=O)N[C@@H](CCSC)C(=O)N[C@@H](CC(C)C)C(=O)N2CCC[C@H]2C(=O)N[C@@H](Cc2ccccc2)C(=O)N[C@@H](Cc2c[nH]c3ccccc23)C(=O)NCC(=O)N[C@H]2CSSC[C@H](NC(=O)[C@H](CCC(=O)O)NC(=O)[C@H](Cc3ccccc3)NC(=O)[C@H](CC(=O)O)NC(=O)[C@H](CCCNC(=N)N)NC(=O)CNC2=O)C(=O)N[C@@H](CCSC)C(=O)N[C@@H](CC(N)=O)C(=O)N[C@@H](CCC(N)=O)C(=O)N1)C(=O)N[C@H]1CSSC[C@@H](C(=O)NCC(=O)O)NC(=O)[C@H](CO)NC(=O)[C@H](CCC(N)=O)NC(=O)[C@H](Cc2ccc(O)cc2)NC(=O)[C@H](Cc2ccc(O)cc2)NC(=O)[C@H](CCC(N)=O)NC1=O` [9.54.90.13] (H-GCNIMLPFWGCGRDFECMNQCICQYYQSCG-OH; disulfide 2-21, 11-17, 23-29; N-terminus and C-terminus assumed), the “FOLD IMPROVEMENT RELATIVE TO VARIANT 9.54.90” value runs as follows: (Table 36, from cellular IC50) 1.41; (Table 38, from cellular IC50) 1.41.
On to `CC[C@H](C)[C@H](NC(=O)[C@@H]1CSSC[C@H](NC(=O)CN)C(=O)N[C@@H](CC(N)=O)C(=O)N[C@@H]([C@@H](C)CC)C(=O)N[C@@H](CCSC)C(=O)N[C@@H](CC(C)C)C(=O)N2CCC[C@H]2C(=O)N[C@@H](Cc2ccccc2)C(=O)N[C@@H](Cc2c[nH]c3ccccc23)C(=O)NCC(=O)N[C@H]2CSSC[C@H](NC(=O)[C@H](CCC(=O)O)NC(=O)[C@H](Cc3ccccc3)NC(=O)[C@H](CC(=O)O)NC(=O)[C@H](CCCNC(=N)N)NC(=O)CNC2=O)C(=O)N[C@@H](CCSC)C(=O)N[C@@H](CCC(N)=O)C(=O)N[C@@H]([C@@H](C)O)C(=O)N1)C(=O)N[C@H]1CSSC[C@@H](C(=O)NCC(=O)O)NC(=O)[C@H](CO)NC(=O)[C@H](CCC(N)=O)NC(=O)[C@H](Cc2ccc(O)cc2)NC(=O)[C@H](Cc2ccc(O)cc2)NC(=O)[C@H](CCC(N)=O)NC1=O` [9.54.90.25] (H-GCNIMLPFWGCGRDFECMQTCICQYYQSCG-OH; disulfide 2-21, 11-17, 23-29; N-terminus and C-terminus assumed), for which, for the setting “Table 36, from cellular IC50”, the “FOLD IMPROVEMENT RELATIVE TO VARIANT 9.54.90” value is reported as 1.07.
As to `CC[C@H](C)[C@@H]1NC(=O)[C@H](Cc2ccccc2)NC(=O)[C@@H]2CSSC[C@H](NC(=O)CNC(=O)[C@H](Cc3c[nH]c4ccccc34)NC(=O)[C@H](Cc3ccccc3)NC(=O)[C@@H]3CCCN3C(=O)[C@H](CC(C)C)NC(=O)[C@H](CCSC)NC(=O)[C@H]([C@@H](C)CC)NC(=O)[C@H](CC(N)=O)NC(=O)[C@@H](NC(=O)CN)CSSC[C@@H](C(=O)N[C@H](C(=O)N[C@H]3CSSC[C@@H](C(=O)NCC(=O)O)NC(=O)[C@H](CO)NC(=O)[C@H](CCC(N)=O)NC(=O)[C@H](Cc4ccc(O)cc4)NC(=O)[C@H](Cc4ccc(O)cc4)NC(=O)[C@H](CCC(N)=O)NC3=O)[C@@H](C)CC)NC(=O)[C@H](CC(N)=O)NC1=O)C(=O)NCC(=O)N[C@@H](CCCNC(=N)N)C(=O)N[C@@H](CC(=O)O)C(=O)N[C@@H](Cc1ccccc1)C(=O)N[C@@H](CCC(=O)O)C(=O)N2` [9.54.90.44] (H-GCNIMLPFWGCGRDFECFINCICQYYQSCG-OH; disulfide 2-21, 11-17, 23-29; N-terminus and C-terminus assumed), under “Table 36, from cellular IC50”, the “FOLD IMPROVEMENT RELATIVE TO VARIANT 9.54.90” value came out at 1.16.
Turning to `CC[C@H](C)[C@H](NC(=O)[C@@H]1CSSC[C@H](NC(=O)CN)C(=O)N[C@@H](CC(N)=O)C(=O)N[C@@H]([C@@H](C)CC)C(=O)N[C@@H](CCSC)C(=O)N[C@@H](CC(C)C)C(=O)N2CCC[C@H]2C(=O)N[C@@H](Cc2ccc(O)cc2)C(=O)N[C@@H](Cc2c[nH]c3ccccc23)C(=O)NCC(=O)N[C@H]2CSSC[C@H](NC(=O)[C@H](CCC(=O)O)NC(=O)[C@H](Cc3ccccc3)NC(=O)[C@H](CC(=O)O)NC(=O)[C@H](CCCNC(=N)N)NC(=O)CNC2=O)C(=O)N[C@@H](Cc2ccccc2)C(=O)N[C@@H](Cc2ccc(O)cc2)C(=O)N[C@@H](CCC(=O)O)C(=O)N1)C(=O)N[C@H]1CSSC[C@@H](C(=O)NCC(=O)O)NC(=O)[C@H](CO)NC(=O)[C@H](CCC(N)=O)NC(=O)[C@H](Cc2ccc(O)cc2)NC(=O)[C@H](Cc2ccc(O)cc2)NC(=O)[C@H](CCC(N)=O)NC1=O` [9.54.90.62.F8Y] (H-GCNIMLPYWGCGRDFECFYECICQYYQSCG-OH; disulfide 2-21, 11-17, 23-29; N-terminus and C-terminus assumed), where the note is “Table 38, from cellular IC50”, the “FOLD IMPROVEMENT RELATIVE TO VARIANT 9.54.90” value was 1.18.
In the case of `CC[C@H](C)[C@H](NC(=O)[C@@H]1CSSC[C@H](NC(=O)CN)C(=O)N[C@@H](CC(N)=O)C(=O)N[C@@H]([C@@H](C)CC)C(=O)N[C@@H](CCSC)C(=O)N[C@@H](CC(C)C)C(=O)N2CCC[C@H]2C(=O)N[C@@H](Cc2ccccc2)C(=O)N[C@@H](Cc2c[nH]c3ccccc23)C(=O)NCC(=O)N[C@H]2CSSC[C@H](NC(=O)[C@H](CCC(=O)O)NC(=O)[C@H](Cc3ccccc3)NC(=O)[C@H](CC(=O)O)NC(=O)[C@H](CCCNC(=N)N)NC(=O)CNC2=O)C(=O)N[C@@H](Cc2ccccc2)C(=O)N[C@@H](Cc2ccc(O)cc2)C(=O)N[C@@H](CCC(=O)O)C(=O)N1)C(=O)N[C@H]1CSSC[C@@H](C(=O)NCC(=O)O)NC(=O)[C@H](CO)NC(=O)[C@H](CCC(N)=O)NC(=O)[C@H](Cc2ccc(O)cc2)NC(=O)[C@H](Cc2ccc(O)cc2)NC(=O)[C@H](CCC(N)=O)NC1=O` [9.54.90.62] (H-GCNIMLPFWGCGRDFECFYECICQYYQSCG-OH; disulfide 2-21, 11-17, 23-29; N-terminus and C-terminus assumed), the “FOLD IMPROVEMENT RELATIVE TO VARIANT 9.54.90” value (Table 36, from cellular IC50) came out at 1.47 and the “FOLD IMPROVEMENT RELATIVE TO VARIANT 9.54.90” value (Table 38, from cellular IC50) came to 1.47.

These data come from patent US11155586B2, “Cystine knot scaffold platform” (Genentech, Inc., priority 2015, dated 2021).
